Where two headings read alike, the source gives them in different places.
What was measured:
Format in all cases: binding
[1] = molecular target: T1, HeLa cell extract proteins (Homo sapiens, UniProt O43865)
T1 construct: endogenous in cells; host or cells: HeLa cell extract

[2] = molecular target: T2, HeLa cell extract proteins (Homo sapiens, UniProt O75390)
T2 construct: endogenous in cells; host or cells: HeLa cell extract
T2 sequence (O75390 28-466): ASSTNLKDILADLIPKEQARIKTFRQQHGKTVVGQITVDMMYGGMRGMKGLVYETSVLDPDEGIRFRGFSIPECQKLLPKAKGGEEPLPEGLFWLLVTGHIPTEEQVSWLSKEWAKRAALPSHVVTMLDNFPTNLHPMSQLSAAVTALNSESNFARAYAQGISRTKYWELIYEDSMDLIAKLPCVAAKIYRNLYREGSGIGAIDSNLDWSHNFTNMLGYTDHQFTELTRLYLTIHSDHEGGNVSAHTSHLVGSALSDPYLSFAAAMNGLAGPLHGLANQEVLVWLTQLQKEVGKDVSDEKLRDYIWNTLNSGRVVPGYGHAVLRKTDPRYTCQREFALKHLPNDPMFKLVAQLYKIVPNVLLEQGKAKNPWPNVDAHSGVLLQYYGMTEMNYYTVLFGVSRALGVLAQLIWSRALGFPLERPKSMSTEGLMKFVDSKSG

[3] = molecular target: T3, HeLa cell extract proteins (Homo sapiens, UniProt P10515)
T3 construct: endogenous in cells; host or cells: HeLa cell extract
T3 sequence (P10515 87-647): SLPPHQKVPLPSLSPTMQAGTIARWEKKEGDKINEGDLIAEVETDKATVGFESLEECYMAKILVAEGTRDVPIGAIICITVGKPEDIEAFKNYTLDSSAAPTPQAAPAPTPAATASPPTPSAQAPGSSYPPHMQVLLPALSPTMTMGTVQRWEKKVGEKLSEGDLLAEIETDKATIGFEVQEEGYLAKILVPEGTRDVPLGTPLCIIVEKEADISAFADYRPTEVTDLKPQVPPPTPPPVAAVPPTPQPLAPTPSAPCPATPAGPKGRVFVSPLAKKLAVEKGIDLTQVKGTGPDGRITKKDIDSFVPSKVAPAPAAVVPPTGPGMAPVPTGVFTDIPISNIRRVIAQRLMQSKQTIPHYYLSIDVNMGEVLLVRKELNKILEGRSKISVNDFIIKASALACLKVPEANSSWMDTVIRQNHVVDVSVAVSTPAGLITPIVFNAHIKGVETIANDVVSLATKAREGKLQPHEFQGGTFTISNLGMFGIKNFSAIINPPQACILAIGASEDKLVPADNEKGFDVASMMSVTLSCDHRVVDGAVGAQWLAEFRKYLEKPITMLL

[4] = molecular target: T4, HeLa cell extract proteins (Homo sapiens, UniProt P32320)
T4 construct: endogenous in cells; host or cells: HeLa cell extract
T4 sequence (P32320 whole entry): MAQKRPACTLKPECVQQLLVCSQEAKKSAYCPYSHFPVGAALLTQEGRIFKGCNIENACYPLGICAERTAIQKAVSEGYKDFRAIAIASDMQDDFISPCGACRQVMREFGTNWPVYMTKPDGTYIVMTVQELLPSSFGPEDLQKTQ

[5] = molecular target: T5, HeLa cell extract proteins (Homo sapiens, UniProt P52272)
T5 construct: endogenous in cells; host or cells: HeLa cell extract
T5 sequence (P52272 1-730): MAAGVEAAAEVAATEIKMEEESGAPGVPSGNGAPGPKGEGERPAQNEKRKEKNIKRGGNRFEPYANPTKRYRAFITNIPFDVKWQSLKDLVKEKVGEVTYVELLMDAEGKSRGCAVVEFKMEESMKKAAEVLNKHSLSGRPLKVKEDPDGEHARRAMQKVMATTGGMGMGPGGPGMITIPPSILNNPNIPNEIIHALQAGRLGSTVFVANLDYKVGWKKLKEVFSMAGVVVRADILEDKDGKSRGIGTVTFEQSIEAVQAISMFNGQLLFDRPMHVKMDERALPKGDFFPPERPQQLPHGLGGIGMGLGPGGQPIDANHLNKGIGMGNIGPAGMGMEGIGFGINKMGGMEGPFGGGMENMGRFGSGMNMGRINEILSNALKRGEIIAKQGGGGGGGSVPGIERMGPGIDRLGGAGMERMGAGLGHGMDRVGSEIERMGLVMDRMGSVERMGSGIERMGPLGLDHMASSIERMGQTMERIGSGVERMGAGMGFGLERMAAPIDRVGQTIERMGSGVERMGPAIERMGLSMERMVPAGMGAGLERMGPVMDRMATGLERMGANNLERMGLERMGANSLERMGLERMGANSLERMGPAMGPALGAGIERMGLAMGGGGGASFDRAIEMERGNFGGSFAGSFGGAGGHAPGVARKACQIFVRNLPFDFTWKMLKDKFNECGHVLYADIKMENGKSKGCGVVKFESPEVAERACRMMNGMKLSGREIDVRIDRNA

[6] = molecular target: T6, HeLa cell extract proteins (Homo sapiens, UniProt Q13315)
T6 construct: endogenous in cells; host or cells: HeLa cell extract
T6 sequence (Q13315 whole entry): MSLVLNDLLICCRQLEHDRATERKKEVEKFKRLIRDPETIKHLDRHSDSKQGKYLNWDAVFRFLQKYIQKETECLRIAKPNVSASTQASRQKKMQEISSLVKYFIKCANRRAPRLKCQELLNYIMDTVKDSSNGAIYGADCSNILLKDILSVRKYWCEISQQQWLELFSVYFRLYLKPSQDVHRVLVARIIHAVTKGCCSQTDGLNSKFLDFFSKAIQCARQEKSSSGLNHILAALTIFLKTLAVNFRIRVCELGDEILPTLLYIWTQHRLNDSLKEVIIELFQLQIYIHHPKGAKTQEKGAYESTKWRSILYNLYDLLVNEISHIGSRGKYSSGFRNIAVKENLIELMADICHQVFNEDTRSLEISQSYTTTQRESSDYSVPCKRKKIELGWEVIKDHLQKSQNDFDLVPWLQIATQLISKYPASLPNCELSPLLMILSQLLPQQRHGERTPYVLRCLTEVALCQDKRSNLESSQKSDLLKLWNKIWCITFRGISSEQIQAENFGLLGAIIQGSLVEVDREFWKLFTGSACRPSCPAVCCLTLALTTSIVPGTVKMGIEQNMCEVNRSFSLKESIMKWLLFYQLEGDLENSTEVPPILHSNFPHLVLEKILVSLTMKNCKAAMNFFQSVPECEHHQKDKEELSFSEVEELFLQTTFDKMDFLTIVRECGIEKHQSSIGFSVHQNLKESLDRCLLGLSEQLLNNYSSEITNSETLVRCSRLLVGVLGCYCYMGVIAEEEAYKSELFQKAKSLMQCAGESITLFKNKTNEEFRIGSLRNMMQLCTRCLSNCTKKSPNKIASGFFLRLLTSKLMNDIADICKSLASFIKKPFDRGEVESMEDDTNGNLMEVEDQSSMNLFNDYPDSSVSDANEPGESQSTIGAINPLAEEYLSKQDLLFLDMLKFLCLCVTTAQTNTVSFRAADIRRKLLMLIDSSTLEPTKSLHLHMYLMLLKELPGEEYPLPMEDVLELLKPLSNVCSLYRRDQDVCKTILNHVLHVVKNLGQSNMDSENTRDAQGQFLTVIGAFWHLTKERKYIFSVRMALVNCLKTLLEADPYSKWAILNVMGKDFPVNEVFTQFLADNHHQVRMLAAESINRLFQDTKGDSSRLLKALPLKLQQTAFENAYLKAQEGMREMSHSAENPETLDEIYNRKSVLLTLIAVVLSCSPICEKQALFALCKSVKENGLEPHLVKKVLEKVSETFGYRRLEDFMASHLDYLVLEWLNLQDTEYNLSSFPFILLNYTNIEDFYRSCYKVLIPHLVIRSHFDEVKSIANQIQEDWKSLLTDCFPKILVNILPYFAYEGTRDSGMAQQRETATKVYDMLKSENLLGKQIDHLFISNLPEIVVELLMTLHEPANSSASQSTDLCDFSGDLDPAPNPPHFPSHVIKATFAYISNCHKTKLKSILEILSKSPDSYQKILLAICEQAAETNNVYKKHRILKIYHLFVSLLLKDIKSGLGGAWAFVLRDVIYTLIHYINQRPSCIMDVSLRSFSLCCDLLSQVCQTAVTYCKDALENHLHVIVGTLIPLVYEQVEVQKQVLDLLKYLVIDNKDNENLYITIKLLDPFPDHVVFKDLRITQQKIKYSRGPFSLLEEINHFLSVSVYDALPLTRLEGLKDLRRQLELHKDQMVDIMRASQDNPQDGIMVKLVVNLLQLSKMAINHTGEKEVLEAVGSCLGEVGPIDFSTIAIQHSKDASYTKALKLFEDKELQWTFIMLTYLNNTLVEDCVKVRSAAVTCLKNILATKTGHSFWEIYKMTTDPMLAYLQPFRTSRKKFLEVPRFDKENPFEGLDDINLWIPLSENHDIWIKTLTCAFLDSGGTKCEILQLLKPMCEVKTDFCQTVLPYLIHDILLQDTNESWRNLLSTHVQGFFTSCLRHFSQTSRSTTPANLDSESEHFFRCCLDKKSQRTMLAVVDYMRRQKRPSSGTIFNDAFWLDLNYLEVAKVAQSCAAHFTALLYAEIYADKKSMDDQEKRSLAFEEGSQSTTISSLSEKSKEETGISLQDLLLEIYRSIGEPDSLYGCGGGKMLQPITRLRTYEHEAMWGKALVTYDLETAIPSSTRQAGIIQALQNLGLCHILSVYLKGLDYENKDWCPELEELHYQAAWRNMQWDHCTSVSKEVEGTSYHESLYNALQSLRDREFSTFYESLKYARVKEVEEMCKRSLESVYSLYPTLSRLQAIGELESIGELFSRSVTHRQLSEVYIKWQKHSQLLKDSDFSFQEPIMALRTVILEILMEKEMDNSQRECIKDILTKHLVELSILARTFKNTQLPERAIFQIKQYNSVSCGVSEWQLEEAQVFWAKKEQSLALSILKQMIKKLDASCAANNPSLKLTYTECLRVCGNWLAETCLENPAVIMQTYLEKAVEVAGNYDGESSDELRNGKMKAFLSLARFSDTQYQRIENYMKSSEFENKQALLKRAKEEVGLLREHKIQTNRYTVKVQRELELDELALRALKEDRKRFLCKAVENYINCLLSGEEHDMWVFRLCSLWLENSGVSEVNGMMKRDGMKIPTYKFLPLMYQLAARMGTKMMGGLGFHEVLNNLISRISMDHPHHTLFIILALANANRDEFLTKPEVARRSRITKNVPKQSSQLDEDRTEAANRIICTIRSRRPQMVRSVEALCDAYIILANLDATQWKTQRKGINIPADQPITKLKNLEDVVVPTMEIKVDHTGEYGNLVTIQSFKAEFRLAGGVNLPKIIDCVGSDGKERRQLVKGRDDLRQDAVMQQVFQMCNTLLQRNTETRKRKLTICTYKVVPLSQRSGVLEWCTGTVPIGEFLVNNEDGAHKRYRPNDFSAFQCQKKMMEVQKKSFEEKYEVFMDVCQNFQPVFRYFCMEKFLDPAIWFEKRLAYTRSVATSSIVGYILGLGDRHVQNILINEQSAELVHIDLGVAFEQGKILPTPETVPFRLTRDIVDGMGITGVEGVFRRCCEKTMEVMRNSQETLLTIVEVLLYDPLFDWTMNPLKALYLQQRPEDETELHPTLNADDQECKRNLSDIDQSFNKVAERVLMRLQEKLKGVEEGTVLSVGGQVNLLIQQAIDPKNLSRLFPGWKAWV

[7] = molecular target: T7, HeLa cell extract proteins (Homo sapiens, UniProt Q16576)
T7 construct: endogenous in cells; host or cells: HeLa cell extract
T7 sequence (Q16576 whole entry): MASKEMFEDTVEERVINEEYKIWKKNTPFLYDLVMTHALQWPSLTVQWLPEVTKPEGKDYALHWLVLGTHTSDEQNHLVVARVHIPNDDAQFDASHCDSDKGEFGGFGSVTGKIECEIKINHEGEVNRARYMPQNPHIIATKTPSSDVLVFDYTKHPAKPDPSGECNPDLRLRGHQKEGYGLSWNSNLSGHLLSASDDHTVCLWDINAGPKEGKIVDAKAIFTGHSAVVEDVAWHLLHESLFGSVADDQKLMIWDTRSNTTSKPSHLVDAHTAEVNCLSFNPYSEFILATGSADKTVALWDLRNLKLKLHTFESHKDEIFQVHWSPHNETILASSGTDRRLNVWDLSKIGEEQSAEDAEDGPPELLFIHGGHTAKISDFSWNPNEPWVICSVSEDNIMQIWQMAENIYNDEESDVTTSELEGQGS

[8] = molecular target: T8, HeLa cell extract proteins (Homo sapiens, UniProt Q9Y6E2)
T8 construct: endogenous in cells; host or cells: HeLa cell extract
T8 sequence (Q9Y6E2 1-419): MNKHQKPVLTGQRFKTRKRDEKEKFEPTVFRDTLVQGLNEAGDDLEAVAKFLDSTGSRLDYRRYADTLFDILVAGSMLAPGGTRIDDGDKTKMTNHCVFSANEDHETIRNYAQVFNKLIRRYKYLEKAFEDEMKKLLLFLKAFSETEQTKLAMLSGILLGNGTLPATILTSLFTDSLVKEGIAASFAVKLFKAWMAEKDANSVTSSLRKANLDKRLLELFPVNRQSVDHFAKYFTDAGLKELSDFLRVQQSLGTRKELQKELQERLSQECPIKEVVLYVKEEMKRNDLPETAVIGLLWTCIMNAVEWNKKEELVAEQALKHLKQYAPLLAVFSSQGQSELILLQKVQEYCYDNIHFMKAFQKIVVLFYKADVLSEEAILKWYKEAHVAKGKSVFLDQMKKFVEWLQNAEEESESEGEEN

[9] = HeLa, protein DLAT (DIHYDROLIPOYLLYSINE-RESIDUE ACETYLTRANSFERASE COMPONENT OF PYRUVATE DEHYDROGENASE COMPLEX, MITOCHONDRIAL)

T1 sequence (O43865 whole entry): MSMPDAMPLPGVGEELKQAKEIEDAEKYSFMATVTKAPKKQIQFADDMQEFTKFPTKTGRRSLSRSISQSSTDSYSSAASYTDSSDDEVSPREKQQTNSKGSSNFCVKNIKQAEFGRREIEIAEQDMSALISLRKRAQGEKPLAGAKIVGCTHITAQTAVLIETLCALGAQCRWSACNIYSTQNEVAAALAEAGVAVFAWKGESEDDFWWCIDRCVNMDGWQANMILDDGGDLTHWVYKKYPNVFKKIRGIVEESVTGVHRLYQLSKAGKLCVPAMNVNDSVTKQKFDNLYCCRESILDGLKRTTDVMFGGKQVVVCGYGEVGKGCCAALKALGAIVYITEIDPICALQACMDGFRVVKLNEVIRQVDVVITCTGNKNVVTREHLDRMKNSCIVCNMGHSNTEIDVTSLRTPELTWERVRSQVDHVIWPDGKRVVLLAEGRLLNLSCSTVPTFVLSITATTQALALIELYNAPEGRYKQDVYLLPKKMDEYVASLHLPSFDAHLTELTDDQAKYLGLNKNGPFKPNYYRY

Row | Structure (SMILES) | fold changes relative to vehicle control ([1]; protein AHCYL1, HeLa) | fold changes relative to vehicle control ([2]; protein CS, HeLa) | fold changes relative to vehicle control ([3]; protein DLAT, HeLa) | fold changes relative to vehicle control ([4]; captured protein CDA, HeLa) | fold changes relative to vehicle control ([5]; HeLa, protein HNRNPM) | fold changes relative to vehicle control ([6]; HeLa, protein ATM) | fold changes relative to vehicle control ([7]; protein RBBP7, HeLa) | fold changes relative to vehicle control ([8]; protein BZW2, HeLa) | fold changes relative to vehicle control ([1]; HeLa, captured protein AHCYL1) | fold changes relative to vehicle control ([2]; HeLa, captured protein CS) | fold changes relative to vehicle control ([4]; HeLa, captured protein CDA) | fold changes relative to vehicle control ([5]; HeLa, captured protein HNRNPM) | fold changes relative to vehicle control ([7]; HeLa, protein RBBP7) | fold changes relative to vehicle control ([8]; HeLa, protein BZW2) | other results
1 | Nc1nc2cccc(-c3ccccc3)c2n1Cc1ccc(Cl)c(Cl)c1 [compound 3] | 0.94 | 1.02 | 1.1 | 0.94 | 0.88 | 1.14 | 0.85 | 0.93 | – | – | – | – | – | – | –
2 | NCCOCCOCC(=O)Nc1nc2ncc(CNc3ccc(C(=O)NC(CCC(=O)O)C(=O)O)cc3)nc2c(=O)[nH]1 (centres unmarked) [compound 6] | – | – | – | – | – | 1.1 | – | – | 1.25 | 1.32 | 0.89 | 1.01 | 1.18 | 1.1 | fold changes relative to vehicle control [3, 9]: 0.92
3 | Nc1nc2[nH]cc(CCc3ccc(C(=O)N[C@@H](CCC(=O)O)C(=O)O)cc3)c2c(=O)[nH]1 [PTX, pemetrexed] | – | – | – | – | – | – | – | – | – | – | – | – | – | – | fold changes relative to vehicle control [1]: 1.08; fold changes relative to vehicle control [2]: 1.2; fold changes relative to vehicle control [3]: 0.96; fold changes relative to vehicle control [4]: 1.06; fold changes relative to vehicle control [5]: 0.99; fold changes relative to vehicle control [6]: 1.04; fold changes relative to vehicle control [7]: 1.04; fold changes relative to vehicle control [8]: 0.98
4 | Nc1nc2c(c(=O)[nH]1)N(C=O)C(CNc1ccc(C(=O)N[C@@H](CCC(=O)O)C(=O)O)cc1)CN2 (some centres unmarked) [LEU, leucovorin] | – | – | – | – | – | 0.92 | – | – | 1.12 | 1.05 | 1.07 | 0.83 | 1.05 | 0.99 | fold changes relative to vehicle control ([3]; HeLa, protein DLAT ([…]-RESIDUE ACETYLT[…] OF PYRUVATE DEH[…], MITOCHONDRIAL)): 1.05
5 | CCCCCCOc1ccc(Cc2cnc(N)nc2N)cc1 [compound 1] | 1.1 | 1.38 | 0.98 | 0.91 | 1.09 | 1.03 | 1.05 | 1.11 | – | – | – | – | – | – | –
6 | NCCCNc1ccc(C(=O)NC(CCC(=O)O)C(=O)O)cc1 (centres unmarked) [compound 7] | – | – | – | – | – | 1.09 | – | – | 1.03 | 1.3 | 1.63 | 1.02 | 0.98 | 1.12 | fold changes relative to vehicle control [3, 9]: 0.97
7 | CCCCCCOc1cccc(Cc2cnc(N)nc2N)c1 [compound 2] | 1.59 | 1.99 | 0.39 | 0.88 | 1.21 | 1.01 | 1.47 | 1.57 | – | – | – | – | – | – | –
